In patent US12157741B2, “Macrocyclic inhibitors of DYRK1A” (DANA-FARBER CANCER INSTITUTE, INC., priority 2018, dated 2024):
pIC50: −log10 of the molar value.

Columns and labels:
various enzymes = various enzymes (Homo sapiens, UniProt Q9UKE5); test: Enzyme IC50 of compound 48 (Table 3); assay type: biochemical; parameters: Enzyme IC50; other: TNIK; conditions: TNIK
LRRK2 (G2019S) = molecular target: T1, LRRK2 (G2019S) (Homo sapiens, UniProt Q5S007, G2019S); test: LRRK2(G2019S) enzyme assay (Promega ADP-Glo Kinase assay); assay type: biochemical; conditions: 25 μM ATP, read-out: Enzyme activity against LRRK2 (G2019S)
T1 construct: purchased SignalChem L10-12GG
T1 sequence (Q5S007 whole entry G2019S): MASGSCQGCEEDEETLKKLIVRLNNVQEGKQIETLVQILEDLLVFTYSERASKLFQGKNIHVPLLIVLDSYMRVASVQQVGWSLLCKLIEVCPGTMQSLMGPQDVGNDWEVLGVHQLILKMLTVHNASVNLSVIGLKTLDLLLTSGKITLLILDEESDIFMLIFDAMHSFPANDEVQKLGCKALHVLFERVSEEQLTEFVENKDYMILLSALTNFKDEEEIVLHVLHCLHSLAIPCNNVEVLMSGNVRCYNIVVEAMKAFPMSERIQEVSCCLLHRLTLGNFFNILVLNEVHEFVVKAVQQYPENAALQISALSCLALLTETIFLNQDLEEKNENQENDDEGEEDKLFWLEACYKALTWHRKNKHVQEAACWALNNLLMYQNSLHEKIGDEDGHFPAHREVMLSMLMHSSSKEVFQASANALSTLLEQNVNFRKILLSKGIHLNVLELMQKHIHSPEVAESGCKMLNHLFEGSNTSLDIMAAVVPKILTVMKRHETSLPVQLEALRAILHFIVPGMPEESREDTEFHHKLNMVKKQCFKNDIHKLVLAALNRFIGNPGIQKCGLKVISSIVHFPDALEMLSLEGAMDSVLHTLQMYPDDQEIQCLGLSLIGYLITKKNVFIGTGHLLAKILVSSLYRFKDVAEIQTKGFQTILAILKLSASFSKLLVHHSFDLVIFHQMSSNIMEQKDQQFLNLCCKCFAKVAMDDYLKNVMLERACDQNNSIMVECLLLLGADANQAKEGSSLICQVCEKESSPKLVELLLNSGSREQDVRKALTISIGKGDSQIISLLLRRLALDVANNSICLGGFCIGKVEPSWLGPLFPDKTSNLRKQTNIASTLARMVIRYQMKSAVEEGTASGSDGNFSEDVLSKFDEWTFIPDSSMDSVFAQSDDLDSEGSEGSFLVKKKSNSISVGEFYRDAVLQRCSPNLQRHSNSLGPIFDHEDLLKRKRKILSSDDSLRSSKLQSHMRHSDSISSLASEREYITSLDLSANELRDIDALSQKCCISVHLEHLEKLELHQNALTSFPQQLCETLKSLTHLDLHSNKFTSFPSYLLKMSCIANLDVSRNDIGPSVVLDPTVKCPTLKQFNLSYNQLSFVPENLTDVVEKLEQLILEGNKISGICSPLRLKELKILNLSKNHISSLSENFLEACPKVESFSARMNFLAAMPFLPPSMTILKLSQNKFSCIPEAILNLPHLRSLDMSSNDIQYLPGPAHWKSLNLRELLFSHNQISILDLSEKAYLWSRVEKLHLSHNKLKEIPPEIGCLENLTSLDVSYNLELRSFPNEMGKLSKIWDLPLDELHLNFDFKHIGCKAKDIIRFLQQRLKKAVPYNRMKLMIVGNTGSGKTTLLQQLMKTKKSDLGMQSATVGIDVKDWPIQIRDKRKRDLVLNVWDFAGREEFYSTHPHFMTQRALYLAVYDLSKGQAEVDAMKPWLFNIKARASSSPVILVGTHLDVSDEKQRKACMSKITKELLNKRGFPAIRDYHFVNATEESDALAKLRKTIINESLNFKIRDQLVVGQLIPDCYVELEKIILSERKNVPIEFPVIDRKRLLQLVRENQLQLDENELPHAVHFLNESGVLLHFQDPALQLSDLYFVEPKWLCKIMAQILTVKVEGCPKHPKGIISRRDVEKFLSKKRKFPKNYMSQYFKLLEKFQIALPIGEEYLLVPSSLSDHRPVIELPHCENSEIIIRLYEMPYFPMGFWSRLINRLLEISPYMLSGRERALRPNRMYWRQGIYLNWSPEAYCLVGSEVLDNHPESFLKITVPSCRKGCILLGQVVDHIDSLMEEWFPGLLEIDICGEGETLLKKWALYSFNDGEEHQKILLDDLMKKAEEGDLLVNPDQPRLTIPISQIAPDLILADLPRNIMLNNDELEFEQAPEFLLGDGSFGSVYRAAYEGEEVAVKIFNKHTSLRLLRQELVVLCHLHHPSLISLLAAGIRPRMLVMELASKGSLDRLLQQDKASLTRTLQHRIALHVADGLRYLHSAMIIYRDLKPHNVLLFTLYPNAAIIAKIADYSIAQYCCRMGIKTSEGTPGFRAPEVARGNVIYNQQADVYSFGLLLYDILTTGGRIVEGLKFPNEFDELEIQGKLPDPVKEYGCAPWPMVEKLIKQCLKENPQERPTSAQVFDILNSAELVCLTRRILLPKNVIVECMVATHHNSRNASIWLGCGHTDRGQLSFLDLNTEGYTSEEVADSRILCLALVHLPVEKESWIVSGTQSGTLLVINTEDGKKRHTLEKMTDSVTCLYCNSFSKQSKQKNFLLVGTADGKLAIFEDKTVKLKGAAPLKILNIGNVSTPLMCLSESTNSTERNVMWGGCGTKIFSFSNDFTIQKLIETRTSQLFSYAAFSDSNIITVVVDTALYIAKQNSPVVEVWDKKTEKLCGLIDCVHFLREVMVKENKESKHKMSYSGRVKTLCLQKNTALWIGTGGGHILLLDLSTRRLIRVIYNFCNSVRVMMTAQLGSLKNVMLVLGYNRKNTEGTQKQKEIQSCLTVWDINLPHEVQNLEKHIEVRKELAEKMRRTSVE
Description: All LRRK2 kinase inhibition assays were conducted by using Promega™ ADP-Glo™ Kinase assay systems (Cat No. V4475).
For LRRK G2019S, each compound mixed with 0.2 μg/μL of substrate, 25 μM ATP, 16 ng of LRRK2 G2019S enzyme (SignalChem, L10-12GG). All samples were diluted with kinase reaction buffer (40 mmol/L TrisHCl, 10 mmol/L MgCl2, and 0.1 μg/μL BSA, 0.05 mM DTT). After a 2 h reaction at 25° C., ADP-Glo™ (Promega™, V9102) reagent was added and incubated at rt for 40 min. Finally, kinase detection reagent (Promega™, Cat No. V6930) was added and reacted at 25° C. for 10 min. The luminescence signals were detected by using Synergy™ Neo2 microplate reader (BioTek®). Compound inhibition curve was fitted using GraphPad Prism 8.0 software.

Sequence of various enzymes (Q9UKE5 whole entry): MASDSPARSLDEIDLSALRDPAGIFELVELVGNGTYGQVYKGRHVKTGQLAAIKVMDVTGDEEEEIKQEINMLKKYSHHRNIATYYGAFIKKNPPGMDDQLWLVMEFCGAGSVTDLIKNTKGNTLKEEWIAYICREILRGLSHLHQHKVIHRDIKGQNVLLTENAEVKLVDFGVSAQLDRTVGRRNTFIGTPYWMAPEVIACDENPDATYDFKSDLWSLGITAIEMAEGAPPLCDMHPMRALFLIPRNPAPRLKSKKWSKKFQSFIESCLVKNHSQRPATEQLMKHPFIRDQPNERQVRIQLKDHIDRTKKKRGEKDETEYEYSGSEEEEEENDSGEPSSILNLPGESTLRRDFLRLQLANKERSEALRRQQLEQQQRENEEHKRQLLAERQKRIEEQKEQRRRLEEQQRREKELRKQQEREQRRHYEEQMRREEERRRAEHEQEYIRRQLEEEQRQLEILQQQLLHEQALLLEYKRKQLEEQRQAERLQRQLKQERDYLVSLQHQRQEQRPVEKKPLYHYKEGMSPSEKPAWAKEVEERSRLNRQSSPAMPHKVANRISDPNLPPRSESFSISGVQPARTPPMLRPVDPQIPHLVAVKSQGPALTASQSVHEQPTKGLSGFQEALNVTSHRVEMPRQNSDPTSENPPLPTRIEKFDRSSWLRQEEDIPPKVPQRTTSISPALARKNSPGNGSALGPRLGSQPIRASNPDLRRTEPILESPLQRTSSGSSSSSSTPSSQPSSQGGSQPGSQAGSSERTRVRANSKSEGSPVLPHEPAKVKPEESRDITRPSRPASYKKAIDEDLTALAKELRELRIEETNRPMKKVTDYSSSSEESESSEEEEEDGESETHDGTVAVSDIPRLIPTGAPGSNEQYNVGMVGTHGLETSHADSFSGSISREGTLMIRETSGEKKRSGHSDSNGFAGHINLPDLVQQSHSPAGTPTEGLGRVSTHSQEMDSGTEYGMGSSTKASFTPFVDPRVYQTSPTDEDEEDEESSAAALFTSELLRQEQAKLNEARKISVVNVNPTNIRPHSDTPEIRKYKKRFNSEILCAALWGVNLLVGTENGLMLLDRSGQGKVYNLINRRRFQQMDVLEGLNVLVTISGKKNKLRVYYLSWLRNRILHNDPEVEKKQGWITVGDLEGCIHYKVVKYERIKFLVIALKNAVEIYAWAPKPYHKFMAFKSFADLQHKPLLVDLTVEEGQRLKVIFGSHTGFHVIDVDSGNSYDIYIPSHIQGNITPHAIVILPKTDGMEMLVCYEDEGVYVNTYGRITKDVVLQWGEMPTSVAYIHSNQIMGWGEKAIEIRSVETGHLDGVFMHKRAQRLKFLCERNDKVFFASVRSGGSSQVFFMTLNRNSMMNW

Q: How did the pIC50 (various enzymes) turn out when `CN1Cc2nn(C)c(C#N)c2-c2cnc3[nH]cc(c3c2)-c2cn(nc2C(F)(F)F)CCCC1=O` [Compound 48, (Z)-31,5-dimethyl-6-oxo-13-(trifluoromethyl)-11H,21H,31H-5-aza-2(3,5)-pyrrolo[2,3-b]pyridina-1(4,1),3(4,3)-dipyrazolacyclononaphane-35-carbonitrile] was run?
A: 7.06

Q: And the pIC50 (LRRK2 (G2019S))?
A: < 7.00
